# Reference: patent US20220096538A1, “PHARMACEUTICAL COMPOSITIONS AND METHODS FOR PREVENTION AND/OR TREATMENT OF INFLAMMATION” (priority 2020, published 2022)
# Where “and” joins values, the source holds several entries; their conditions need not be identical. Identical values can stand only once.
# Assays:
# [1] = test system: LPS-GalN induced liver injury; experiment: LPS-GalN model, treatment 2 h post LPS-GalN: liver histopathological score
# [2] = test system: LPS-GalN induced acute lung injury; experiment: LPS-GalN model, treatment 2 h post LPS-GalN: lung histopathological (ALI) score; conditions: for Mean±SE ALI score: scale 0 to 4
# LPS-GalN challenged mice = experiment: LPS-GalN model of fatal cytokine storm and sepsis, treatment 2 h post LPS-GalN: 24 h survival
# [3] = cited from earlier work; for Approximate Equivalent Dose: equivalent to 0.75 mg dexamethasone
# [4] = low dose RJX, standard dose DEX, alone or combined, 2 h post LPS-GalN
# [5] = DEX 0.1 mg/kg i.p. 2 h post LPS-GalN, n=6
# [6] = DEX 0.6 mg/kg i.p. 2 h post LPS-GalN, n=6
# [7] = DEX 6.0 mg/kg i.p. 2 h post LPS-GalN, n=6
# [8] = RJX 0.7 ml/kg, DEX 0.6 mg/kg, alone or combined, 2 h post LPS-GalN
structure (smiles),measurement,setting,value
"C[C@@H]1C[C@H]2[C@@H]3CCC4=CC(=O)C=C[C@]4(C)[C@@]3(F)[C@@H](O)C[C@]2(C)[C@@]1(O)C(=O)CO [DEX, dexamethasone]",histopathological liver damage score (Mean±SE),[1]; DEX 0.1 mg/kg,3.3±0.2
same,histopathological liver damage score (Mean±SE),[1]; DEX 0.6 mg/kg,2.7±0.2
same,liver score median,[1]; DEX 0.6 mg/kg,3
same,histopathological liver damage score (Mean±SE),[1]; DEX 6.0 mg/kg,2.3±0.2
same,liver score median,[1]; DEX 6.0 mg/kg,3
same,"liver histopathological scores, range",[1]; DEX (0.1),3-4
same,"Liver Histopathological Score: ≥3 (severe damage or more), percent of mice",[1]; [4],50%
same,"lung histopathological ALI score, Median",[2]; DEX 0.1 mg/kg,3.5
same,"lung histopathological ALI scores, range",[2]; DEX 0.1 mg/kg,3-4
same,Mean±SE ALI score,[2]; DEX 0.1 mg/kg,3.5±0.2
same,"lung histopathological ALI score, Median",[2]; DEX 0.6 mg/kg,3
same,"lung histopathological ALI scores, range",[2]; DEX 0.6 mg/kg,2-4
same,Mean±SE ALI score,[2]; DEX 0.6 mg/kg,2.8±0.3
same,"lung histopathological ALI score, Median",[2]; DEX 6.0 mg/kg,2
same,"lung histopathological ALI scores, range",[2]; DEX 6.0 mg/kg,1-3
same,Mean±SE ALI score,[2]; DEX 6.0 mg/kg,1.8±0.3
same,"Lung Histopathological Score: ≥3 (severe damage or more), percent of mice",[2]; [4],50%
same,ALI score of a representative mouse,"[2]; single dose at 2 hours post-LPS-GalN, sacrificed at 24 hours, low dose RJX, high dose DEX or both",2
same,Censored,LPS-GalN challenged mice; [5],1
same,Events,LPS-GalN challenged mice; [5],5
same,Median (survival),LPS-GalN challenged mice; [5],5.1 h
same,Proportion (events; 24-h mortality),LPS-GalN challenged mice; [5],83.3%
same,Censored,LPS-GalN challenged mice; [6],3
same,Events,LPS-GalN challenged mice; [6],3
same,Median (survival),LPS-GalN challenged mice; [6],15.0 h
same,Proportion (events; mortality),LPS-GalN challenged mice; [6],50.0%
same,Censored,LPS-GalN challenged mice; [7],4
same,Events,LPS-GalN challenged mice; [7],2
same,Proportion (events; mortality),LPS-GalN challenged mice; [7],33.3%
same,Censored,"LPS-GalN challenged mice; RJX 0.7 ml/kg (6-fold diluted 4.2 mL/kg), DEX 0.6 mg/kg, alone or combined, 2 h post LPS-GalN",5
same,Events,LPS-GalN challenged mice; [8],5
same,Median (survival),LPS-GalN challenged mice; [8],17.6 h
same,Proportion (events),LPS-GalN challenged mice; [8],50.0%
C[C@]12CCC(=O)C=C1CC[C@@H]1[C@@H]2C(=O)C[C@@]2(C)[C@H]1CC[C@]2(O)C(=O)CO [Cortisone],Approximate Equivalent Dose,[3],25 mg
C[C@]12C=CC(=O)C=C1CC[C@@H]1[C@@H]2[C@@H](O)C[C@@]2(C)[C@H]1CC[C@]2(O)C(=O)CO [Prednisolone],Approximate Equivalent Dose,[3],5 mg
C[C@]12CCC(=O)C=C1CC[C@H]1[C@@H]3CC[C@](O)(C(=O)CO)[C@@]3(C)C[C@H](O)[C@@]12F [Fludrocortisone],Anticipated Half-life,[3],12 to 26 h and 12 to 36 h
C[C@]12CCC(=O)C=C1CC[C@@H]1[C@@H]2[C@@H](O)C[C@@]2(C)[C@H]1CC[C@]2(O)C(=O)CO [Hydrocortisone],Approximate Equivalent Dose,[3],20 mg
C[C@]12C=CC(=O)C=C1CC[C@H]1[C@@H]3C[C@@H](O)[C@](O)(C(=O)CO)[C@@]3(C)C[C@H](O)[C@@]12F [Triamcinolone],Approximate Equivalent Dose,[3],4 mg
